Measured values: patent US12378248B2 (The United States of America, as represented by the …, priority 2018, dated 2025)
Changes are numbered by the printed parent chain.

How the values were obtained:
wild-type C57BL/6J mice [1] = assay: Hypothermia (Tb by telemetry) after ip dosing; format: in vivo, mouse; conditions: for Tb (° C.): average from dosing to 60 min, mean±SD
Method: (§1) Compounds were dosed ip. Tb and activity were measured by telemetry and the averages from dosing to 60 min were calculated. […] Data are for the highest dose used and are mean±SD from 3 to 22 mice/group (usually 5-7). P values are unpaired t-Test vs vehicle-treated controls assayed simultaneously. Vehicle data are mean±SD from all (n=83) vehicle treated mice.

[2] = Plasma protein binding at 10 μM; format: in vitro ADME, human; conditions: unbound percent ± standard deviation
Method: (§2) Plasma protein binding in human plasma, mouse plasma, and rat plasma was determined. Verapamil and warfarin served as positive controls. The results are expressed as unbound percent±standard deviation.

mA3AR [3] = target: T1, mA3AR (Mus musculus, UniProt Q61618); assay: Guanine nucleotide ([35S]GTPγS) binding assay; format: biochemical; conditions: effect of 10 μM test compound as % of 10 μM 16
T1 sequence (Q61618 1-319): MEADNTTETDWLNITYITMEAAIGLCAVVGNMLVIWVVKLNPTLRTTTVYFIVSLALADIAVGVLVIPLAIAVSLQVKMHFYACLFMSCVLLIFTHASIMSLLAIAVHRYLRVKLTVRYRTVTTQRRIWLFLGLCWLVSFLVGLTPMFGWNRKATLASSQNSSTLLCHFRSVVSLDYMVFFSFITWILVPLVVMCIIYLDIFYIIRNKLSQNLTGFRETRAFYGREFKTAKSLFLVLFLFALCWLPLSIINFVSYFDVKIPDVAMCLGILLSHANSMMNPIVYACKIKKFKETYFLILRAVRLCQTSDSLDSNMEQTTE
Method: (§3) cLogP was calculated using ChemDraw Professional, v. 16.0. Binding selectivity for mA1Ar is expressed in terms of fold, compared to mA3AR (Data from Table 1).

[4] = Plasma protein binding at 10 μM; format: in vitro ADME, mouse; conditions: unbound percent ± standard deviation
Method: as §2

hA3AR = target: T2, hA3AR (Homo sapiens, UniProt P0DMS8); assay: Radioligand binding in membranes of CHO cells expressing hA3AR; conditions: read-out: A3AR % inhibition or Ki; for Ki: (h)
T2 construct: expressed in transfected cells; host or cells: CHO
T2 sequence (P0DMS8 1-318): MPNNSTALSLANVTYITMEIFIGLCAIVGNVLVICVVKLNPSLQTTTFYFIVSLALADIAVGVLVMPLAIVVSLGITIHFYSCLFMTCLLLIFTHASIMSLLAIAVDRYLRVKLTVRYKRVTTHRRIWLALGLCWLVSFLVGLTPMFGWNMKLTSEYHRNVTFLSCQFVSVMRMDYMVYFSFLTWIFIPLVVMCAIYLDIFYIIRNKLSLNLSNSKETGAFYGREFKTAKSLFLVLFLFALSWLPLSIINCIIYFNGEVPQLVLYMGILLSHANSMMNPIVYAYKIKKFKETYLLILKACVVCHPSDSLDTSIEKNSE

[5] = Plasma protein binding at 10 μM; format: in vitro ADME, rat; conditions: unbound percent ± standard deviation
Method: as §2

wild-type C57BL/6J mice [6] = assay: Locomotor activity by telemetry after ip dosing; format: in vivo, mouse; conditions: average from dosing to 60 min, mean±SD
Method: as §1

rA1AR = target: T3, rA1AR (Rattus norvegicus, UniProt P25099); assay: Adenosine receptor binding, rA1AR; conditions: (r), read-out: A1AR % inhibition or Ki (converted)
T3 sequence (P25099 1-326): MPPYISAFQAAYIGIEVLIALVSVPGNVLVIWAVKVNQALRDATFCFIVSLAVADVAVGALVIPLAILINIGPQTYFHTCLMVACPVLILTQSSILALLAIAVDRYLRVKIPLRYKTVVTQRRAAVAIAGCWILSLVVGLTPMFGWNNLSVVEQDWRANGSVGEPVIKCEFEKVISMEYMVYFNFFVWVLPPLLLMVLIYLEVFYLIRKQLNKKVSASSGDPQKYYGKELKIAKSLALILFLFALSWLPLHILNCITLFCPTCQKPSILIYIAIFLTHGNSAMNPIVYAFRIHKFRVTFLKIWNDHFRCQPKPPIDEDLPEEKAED

hA2AAR = target: T4, hA2AAR (Homo sapiens, UniProt P29274); assay: Radioligand binding in membranes of HEK293 cells expressing hA2AAR; conditions: read-out: A2AAR % inhibition
T4 construct: expressed in transfected cells; host or cells: HEK293
T4 sequence (P29274 whole entry): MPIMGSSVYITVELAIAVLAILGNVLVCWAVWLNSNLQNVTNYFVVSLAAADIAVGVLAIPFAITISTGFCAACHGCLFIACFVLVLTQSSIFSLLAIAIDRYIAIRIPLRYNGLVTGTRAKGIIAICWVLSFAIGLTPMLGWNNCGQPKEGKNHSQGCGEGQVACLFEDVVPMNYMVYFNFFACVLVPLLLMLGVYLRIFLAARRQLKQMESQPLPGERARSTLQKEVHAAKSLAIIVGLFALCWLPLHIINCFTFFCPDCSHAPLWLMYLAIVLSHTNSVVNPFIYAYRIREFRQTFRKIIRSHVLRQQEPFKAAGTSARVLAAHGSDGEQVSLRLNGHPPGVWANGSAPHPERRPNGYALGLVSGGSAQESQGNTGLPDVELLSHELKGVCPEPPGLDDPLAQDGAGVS

[7] = test system: off-target receptors (PDSP); assay: Off-target interactions determined by the PDSP, whole screen; format: binding, human; conditions: no off-target interaction listed
hA1AR = target: T5, hA1AR (Homo sapiens, UniProt P30542); assay: Radioligand binding in membranes of CHO cells expressing hA1AR, [3H]N6-R-phenylisopropyladenosine; conditions: (h); Ki; read-out: A1AR % inhibition or Ki
T5 construct: expressed in transfected cells; host or cells: CHO
T5 sequence (P30542 1-326): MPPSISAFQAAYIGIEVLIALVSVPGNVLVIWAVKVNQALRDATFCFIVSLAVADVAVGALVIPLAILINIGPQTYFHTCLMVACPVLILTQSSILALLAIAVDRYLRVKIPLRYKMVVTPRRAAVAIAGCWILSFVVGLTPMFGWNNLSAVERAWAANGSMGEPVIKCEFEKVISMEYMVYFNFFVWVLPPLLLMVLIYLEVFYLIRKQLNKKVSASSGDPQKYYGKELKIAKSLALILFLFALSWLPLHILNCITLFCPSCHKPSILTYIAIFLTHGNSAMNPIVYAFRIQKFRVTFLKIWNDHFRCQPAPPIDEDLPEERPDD

mA1AR [8] = target: T6, mA1AR (Mus musculus, UniProt Q60612); assay: Adenosine receptor binding, mA1AR; conditions: for Ki: (m), read-out: A1AR % inhibition or Ki (converted)
T6 sequence (Q60612 1-326): T3 sequence (P25099 1-326) with V151E, D155A, R157I, D316E, L319I, E325D

mA1AR [9] = target: T6, mA1AR; assay: Guanine nucleotide ([35S]GTPγS) binding assay; format: biochemical
Method: as §3

mA3AR [10] = target: T1, mA3AR; assay: Adenosine receptor binding, mA3AR
mA2AAR = mA2AAR (Mus musculus, UniProt Q60613); assay: Adenosine receptor binding, mA2AAR; conditions: read-out: A2AAR % inhibition (converted)
mA2AAR, sequence (Q60613 whole entry): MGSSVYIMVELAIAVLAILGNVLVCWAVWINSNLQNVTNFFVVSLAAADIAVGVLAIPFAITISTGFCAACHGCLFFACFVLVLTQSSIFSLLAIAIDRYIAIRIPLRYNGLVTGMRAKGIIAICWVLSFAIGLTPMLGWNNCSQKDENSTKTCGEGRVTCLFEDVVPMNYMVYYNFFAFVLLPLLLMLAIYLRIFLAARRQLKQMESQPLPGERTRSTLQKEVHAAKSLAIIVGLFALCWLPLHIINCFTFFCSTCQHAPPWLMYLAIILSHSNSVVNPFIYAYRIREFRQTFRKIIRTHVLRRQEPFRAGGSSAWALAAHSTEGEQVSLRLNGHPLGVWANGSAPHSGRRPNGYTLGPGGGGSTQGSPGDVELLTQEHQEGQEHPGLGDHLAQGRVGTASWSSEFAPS

serotonin receptor 5HT2C = target: T7, serotonin receptor 5HT2C (Homo sapiens, UniProt P28335); assay: Off-target interaction determined by the PDSP; format: binding; conditions: read-out: Off-target, receptor (h, unless noted) (Ki, μM): 5HT2C
T7 sequence (P28335 33-458): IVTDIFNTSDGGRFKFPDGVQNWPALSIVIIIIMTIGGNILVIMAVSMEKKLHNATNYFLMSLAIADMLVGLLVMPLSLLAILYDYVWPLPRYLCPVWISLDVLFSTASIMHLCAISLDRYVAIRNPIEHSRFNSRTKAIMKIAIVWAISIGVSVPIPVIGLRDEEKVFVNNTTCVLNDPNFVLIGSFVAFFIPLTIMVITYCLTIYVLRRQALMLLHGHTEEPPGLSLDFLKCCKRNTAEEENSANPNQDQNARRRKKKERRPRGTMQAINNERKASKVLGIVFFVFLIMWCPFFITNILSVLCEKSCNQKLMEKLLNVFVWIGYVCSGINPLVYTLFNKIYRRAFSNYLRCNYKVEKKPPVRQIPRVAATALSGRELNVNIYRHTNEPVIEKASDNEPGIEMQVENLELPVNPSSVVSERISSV

[11] = target: dopamine transporter (DAT) (Homo sapiens, UniProt Q01959); assay: Off-target interaction determined by the PDSP; format: binding; conditions: read-out: Off-target, receptor (h, unless noted) (Ki, μM): DAT
dopamine transporter (DAT), sequence (Q01959 whole entry): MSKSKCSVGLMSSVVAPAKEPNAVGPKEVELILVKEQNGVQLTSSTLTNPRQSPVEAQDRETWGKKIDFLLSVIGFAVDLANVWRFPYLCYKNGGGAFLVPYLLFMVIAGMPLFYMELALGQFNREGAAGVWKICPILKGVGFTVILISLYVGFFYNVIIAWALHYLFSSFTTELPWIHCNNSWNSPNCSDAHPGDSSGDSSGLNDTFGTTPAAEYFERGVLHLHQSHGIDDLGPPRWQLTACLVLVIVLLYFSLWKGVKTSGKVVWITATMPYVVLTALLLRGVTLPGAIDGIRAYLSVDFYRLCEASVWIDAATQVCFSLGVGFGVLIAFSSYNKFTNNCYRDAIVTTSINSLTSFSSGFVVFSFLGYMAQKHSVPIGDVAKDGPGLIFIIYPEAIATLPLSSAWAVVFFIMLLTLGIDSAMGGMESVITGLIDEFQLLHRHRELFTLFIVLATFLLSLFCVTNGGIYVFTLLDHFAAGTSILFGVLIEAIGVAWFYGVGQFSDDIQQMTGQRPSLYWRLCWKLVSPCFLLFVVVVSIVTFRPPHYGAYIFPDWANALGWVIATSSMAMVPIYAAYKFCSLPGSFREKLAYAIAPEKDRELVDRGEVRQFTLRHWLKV

sigma receptor σ2 = sigma receptor σ2 (UniProt Q5BJF2); assay: Off-target interaction determined by the PDSP; format: binding, human; conditions: read-out: Off-target, receptor (h, unless noted) (Ki, μM): σ2
serotonin receptor 5HT2B = serotonin receptor 5HT2B (Homo sapiens, UniProt P41595); assay: Off-target interaction determined by the PDSP; format: binding; conditions: read-out: Off-target, receptor (h, unless noted) (Ki, μM): 5HT2B
serotonin receptor 5HT2B, sequence (P41595 whole entry): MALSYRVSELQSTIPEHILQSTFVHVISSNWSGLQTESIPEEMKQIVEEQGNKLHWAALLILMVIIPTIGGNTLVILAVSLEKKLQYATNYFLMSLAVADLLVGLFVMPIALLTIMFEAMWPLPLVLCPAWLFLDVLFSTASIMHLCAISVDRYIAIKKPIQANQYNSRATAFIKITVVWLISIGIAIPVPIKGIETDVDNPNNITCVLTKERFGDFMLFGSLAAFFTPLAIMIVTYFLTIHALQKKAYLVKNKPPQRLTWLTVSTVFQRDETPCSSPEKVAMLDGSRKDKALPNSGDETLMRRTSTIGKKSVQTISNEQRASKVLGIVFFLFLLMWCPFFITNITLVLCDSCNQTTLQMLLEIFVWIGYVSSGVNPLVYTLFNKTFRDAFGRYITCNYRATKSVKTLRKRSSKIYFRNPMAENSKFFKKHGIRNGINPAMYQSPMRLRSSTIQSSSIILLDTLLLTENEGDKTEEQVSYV

mice = assay: Tail suspension test, immobility time; format: in vivo, mouse; conditions: 3, 10 or 20 mg/kg i.p.
Method: 1 hour after administration of compounds, the mice were individually suspended by their tails for 6 minutes, and the average amount of time the mice were immobile was determined. […]

[12] = Stability in simulated gastric fluid; format: physicochemical; conditions: pH 1.60, 37° C., after 120 min

With `OC[C@H]1O[C@@H](n2cnc3c(NC(C4CCC4)C4CCC4)ncnc32)[C@H](O)C1O` (stereo in doubt) [Compound 9, (2R,3R,4R,5R)-2-(6-((Dicyclobutylmethyl)amino)-9H-purin-9-yl)-5-(hydroxymethyl)tetrahydrofuran-3,4-diol] the ARs causing hypothermia (wild-type C57BL/6J mice [1]; 3 mg/kg ip, WT and AR-KO mice (FIG. 2)) was “A1AR selective”, the “Tb (° C.)” value (wild-type C57BL/6J mice [1]; 3 mg/kg ip) was 33.0 ± 0.7 °C and the “human, % free” value [2] was 6.05 ± 1.60%. The Emax at 10 µM (mA3AR [3]) was 70 ± 9%, the “mouse, % free” value [4] was 20.6 ± 1.2% and the Ki (hA3AR) was 10600 nM. The “rat, % free” value [5] was 14.6 ± 0.01% and the “Activity (counts)” value (wild-type C57BL/6J mice [6]; 3 mg/kg ip) was 6.6 ± 2.3 counts.
With `CNC(=O)[C@H]1O[C@@H](n2cnc3c(N)ncnc32)[C@H](O)[C@@H]1O` [Compound 15, reference compound] the Ki (rA1AR) was 84 nM, the Ki (hA2AAR; (h), values without % sign (Ki)) was 466 ± 95 nM and the “Off-target, receptor (h, unless noted)” value [7] was “none”. It also gave a Ki (hA3AR) of 24.4 nM and a Ki (hA1AR) of 36.7 nM.
With `Nc1nc(Cl)nc2c1ncn2[C@H]1[C@H](O)[C@H](O)[C@]2(CO)C[C@H]12` [Compound 21] the Ki (rA1AR) was 273 nM and the “Off-target, receptor (h, unless noted)” value [7] was “none”.
With `OC[C@@]12C[C@@H]1[C@@H](n1cnc3c(N[C@H]4C[C@H]5CC[C@@H]4C5)nc(Cl)cc31)[C@H](O)[C@@H]2O` [Compound 30, (1R,2R,3S,4R,5S)-4-(4-(((1R,2S,4S)-Bicyclo[2.2.1]heptan-2-yl)amino)-6-chloro-1H-imidazo[4,5-c]pyridin-1-yl)-1-(hydroxymethyl)bicyclo[3.1.0]hexane-2,3-diol] the inhibition at 10 µM (hA2AAR) was 29 ± 13%, the “Off-target, receptor (h, unless noted)” value [7] was “none” and the Ki (hA3AR) was 145 ± 74 nM. The Ki (hA1AR) was 240 ± 19 nM.
For `O[C@H]1[C@H](n2cnc3c(N[C@H]4C[C@H]5CC[C@@H]4C5)nc(Cl)nc32)[C@H]2C[C@@]2(CCl)[C@H]1O` [Compound 31, (1S,2R,3S,4R,5S)-4-(6-(((1R,2S,4S)-Bicyclo[2.2.1]heptan-2-yl)amino)-2-chloro-9H-purin-9-yl)-1-(chloromethyl)bicyclo[3.1.0]hexane-2,3-diol], the “Tb (° C.)” value (wild-type C57BL/6J mice [1]; 3 mg/kg ip) was 36.6 ± 0.5 °C, the Ki (mA1AR [8]) was 1.86 nM and the “Binding selectivity for mA1AR” value (mA1AR [8]; compared to mA3AR) was “(270) fold”. For the same compound, the “human, % free” value [2] was 4.04 ± 0.60%, the Emax at 10 µM (mA3AR [3]) was 50 ± 11% and the Emax at 10 µM (mA1AR [9]) was 123 ± 16%. The “mouse, % free” value [4] was 2.95 ± 0.84%, the inhibition at 10 µM (hA2AAR) was 54 ± 8% and the Ki (mA3AR [10]; (m), Ki, read-out: A3AR % inhibition or Ki (converted)) was 503 nM. The inhibition at 10 µM (mA2AAR) was 15%, the “Off-target, receptor (h, unless noted)” value [7] was “none” and the Ki (hA3AR) was 456 ± 201 nM. The Ki (hA1AR) was 44.8 ± 1.3 nM, the “rat, % free” value [5] was 2.53 ± 0.45% and the “Activity (counts)” value (wild-type C57BL/6J mice [6]; 3 mg/kg ip) was 16.8 ± 3.6 counts.
For `NC(=O)c1ncn([C@H]2[C@H](O)[C@H](O)[C@]3(CO)C[C@H]23)n1` [Compound 40, 1-((1S,2R,3S,4R,5R)-3,4-Dihydroxy-5-(hydroxymethyl)bicyclo[3.1.0]hexan-2-yl)-1H-1,2,4-triazole-3-carboxamide], the “Tb (° C.)” value (wild-type C57BL/6J mice [1]; 10 mg/kg ip) was 35.7 ± 0.7 °C, the Ki (serotonin receptor 5HT2C) was 2.35 µM and the selectivity ratio (mA1AR [8]) was 400. The Ki (mA1AR [8]) was 25.2 ± 2.8 nM, the “human, % free” value [2] was over 80% and the Emax at 10 µM (mA3AR [3]) was 31 ± 3%. For the same compound, the “mouse, % free” value [4] was over 80%, the inhibition at 10 µM (hA2AAR) was 11 ± 3% and the inhibition at 10 µM (mA3AR [10]; read-out: A3AR % inhibition or Ki) was 47 ± 2%. It also gave a Ki [11] of 6.61 µM, a Ki (sigma receptor σ2) of 2.09 µM and an inhibition at 10 µM (hA3AR) of 41 ± 6%. For the same compound, the Ki (hA1AR) was 495 ± 35 nM, the “rat, % free” value [5] was over 80% and the “Activity (counts)” value (wild-type C57BL/6J mice [6]; 10 mg/kg ip) was 19.1 ± 5.3 counts. For the same compound, the Ki (serotonin receptor 5HT2B) was 1.91 µM.
For `O[C@@H]1[C@H](O)[C@@H]2C[C@@H]2[C@H]1n1cnc2c(NC(C3CC3)C3CC3)nc(Cl)nc21` [MRS5474, reference compound], the “average immobility times versus the control group of mice” value (mice; 1 hour after administration) was “lower than the average immobility times exhibited by the control group of mice”, the “average immobility times versus mice treated with fluoxetine” value (mice; fluoxetine 10 mg/kg) was “approximately twice longer” and the “initial amount present in simulated gastric fluid” value [12] was 51%.
